Measured values from the supplement of paper PMC13380429.

Assays:
[1] = system: A549-ACE2 infected with SARS-CoV-2; assay: morphology score (similarity to uninfected cells); higher = more like uninfected cells; settings: 24 h
U2OS [2] = assay: drug sensitivity score (DSS) for viability; higher = more toxic; extreme values may be limits of the assay; settings: 72 h
Calu-3 [3] = assay: as above; settings: 72 h
HepG2 [4] = assay: as above; settings: 72 h
Vero E6 [5] = assay: as above; settings: 72 h
Caco-2 [6] = assay: as above; settings: 72 h
[7] = system: A549-ACE2 infected with SARS-CoV-2; assay: SARS-CoV-2 infection rate relative to DMSO; higher = more infection; settings: 24 h
A549-ACE2 [8] = assay: drug-induced phospholipidosis relative to tamoxifen; higher = more phospholipidosis
A549-ACE2 [9] = assay: phospholipidosis EC50; higher = less potent phospholipidosis inducer
U2OS [10] = assay: relative viability EC50 (midpoint between 100% and the lowest measured viability); higher = less toxic; settings: 72 h
HepG2 [11] = assay: as above; settings: 72 h
Vero E6 [12] = assay: as above; settings: 72 h
Caco-2 [13] = assay: as above; settings: 72 h
U2OS [14] = assay: cell viability relative to DMSO; higher = less toxic; settings: 72 h
Calu-3 [15] = assay: as above; settings: 72 h
HepG2 [16] = assay: as above; settings: 72 h
Vero E6 [17] = assay: as above; settings: 72 h
Caco-2 [18] = assay: as above; settings: 72 h
[19] = system: A549-ACE2 infected with SARS-CoV-2; assay: cell count relative to DMSO; higher = less toxic; settings: 24 h
Calu-3 [20] = assay: relative viability EC50 (midpoint between 100% and the lowest measured viability); higher = less toxic; settings: 72 h

CN1CCCC(CN2c3ccccc3Sc3ccccc32)C1 (stereo not given) [mepazine]
Settings	SARS-CoV-2 infection rate [%]	cell count [%]	cell viability [%]	morphology score	phospholipidosis EC50 [µM]
A549-ACE2 [9], 24 h	–	–	–	–	3.88
A549-ACE2 [9], 48 h	–	–	–	–	6.39
A549-ACE2 [9], 72 h	–	–	–	–	9.51
Caco-2 [18], 1 nM	–	–	94.1	–	–
Caco-2 [18], 10 nM	–	–	98.3	–	–
Caco-2 [18], 100 nM	–	–	98.2	–	–
Caco-2 [18], 1000 nM	–	–	101	–	–
Caco-2 [18], 10000 nM	–	–	85.7	–	–
Calu-3 [15], 1 nM	–	–	106	–	–
Calu-3 [15], 10 nM	–	–	99.2	–	–
Calu-3 [15], 100 nM	–	–	99.3	–	–
Calu-3 [15], 1000 nM	–	–	99.5	–	–
Calu-3 [15], 10000 nM	–	–	72.8	–	–
HepG2 [16], 1 nM	–	–	98.3	–	–
HepG2 [16], 10 nM	–	–	102	–	–
HepG2 [16], 100 nM	–	–	100	–	–
HepG2 [16], 1000 nM	–	–	87.9	–	–
HepG2 [16], 10000 nM	–	–	84.8	–	–
U2OS [14], 1 nM	–	–	99.1	–	–
U2OS [14], 10 nM	–	–	98.6	–	–
U2OS [14], 100 nM	–	–	98.6	–	–
U2OS [14], 1000 nM	–	–	100	–	–
U2OS [14], 10000 nM	–	–	91.4	–	–
Vero E6 [17], 1 nM	–	–	101	–	–
Vero E6 [17], 10 nM	–	–	101	–	–
Vero E6 [17], 100 nM	–	–	103	–	–
Vero E6 [17], 1000 nM	–	–	97.1	–	–
Vero E6 [17], 10000 nM	–	–	94.8	–	–
[1], 0.3 µM	–	–	–	0.02	–
[1], 3 µM	–	–	–	0.61	–
[1], 10 µM	–	–	–	0.86	–
[1], 30 µM	–	–	–	0.32	–
[7], 0.3 µM	102	–	–	–	–
[7], 3 µM	59	–	–	–	–
[7], 10 µM	16	–	–	–	–
[7], 30 µM	27	–	–	–	–
[19], 0.3 µM	–	103	–	–	–
[19], 3 µM	–	112	–	–	–
[19], 10 µM	–	122	–	–	–
[19], 30 µM	–	113	–	–	–

Settings	drug sensitivity score	relative viability EC50 [µM]
Caco-2 [6]	0.1	–
Caco-2 [13]	–	> 10
Calu-3 [3]	1.2	–
HepG2 [4]	1.1	–
HepG2 [11]	–	> 10
U2OS [2]	0	–
U2OS [10]	–	> 10
Vero E6 [5]	0	–
Vero E6 [12]	–	> 10

drug-induced phospholipidosis [%], A549-ACE2 [8]
Settings	0.3 µM	0.833333 µM	3.33333 µM	6.66667 µM	10 µM	30 µM
24 h	2.48	6.78	32.9	53.3	64.8	70.3
48 h	1.98	4.75	20.8	48.9	65.8	86.6
72 h	3.11	3.43	18.8	39.1	63.9	101

CN1C2CCC1CC(OC(c1ccccc1)c1ccc(Cl)cc1)C2 (stereo not given) [3-CPMT]
Settings	SARS-CoV-2 infection rate [%]	cell count [%]	cell viability [%]	morphology score	phospholipidosis EC50 [µM]
A549-ACE2 [9], 24 h	–	–	–	–	3.84
A549-ACE2 [9], 48 h	–	–	–	–	4.5
A549-ACE2 [9], 72 h	–	–	–	–	4.56
Caco-2 [18], 1 nM	–	–	94.2	–	–
Caco-2 [18], 10 nM	–	–	89.7	–	–
Caco-2 [18], 100 nM	–	–	91.5	–	–
Caco-2 [18], 1000 nM	–	–	94.9	–	–
Caco-2 [18], 10000 nM	–	–	76.4	–	–
Calu-3 [15], 1 nM	–	–	107	–	–
Calu-3 [15], 10 nM	–	–	109	–	–
Calu-3 [15], 100 nM	–	–	106	–	–
Calu-3 [15], 1000 nM	–	–	91.3	–	–
Calu-3 [15], 10000 nM	–	–	55.1	–	–
HepG2 [16], 1 nM	–	–	99.3	–	–
HepG2 [16], 10 nM	–	–	110	–	–
HepG2 [16], 100 nM	–	–	97.6	–	–
HepG2 [16], 1000 nM	–	–	98.6	–	–
HepG2 [16], 10000 nM	–	–	59.5	–	–
U2OS [14], 1 nM	–	–	104	–	–
U2OS [14], 10 nM	–	–	96.9	–	–
U2OS [14], 100 nM	–	–	100	–	–
U2OS [14], 1000 nM	–	–	97.1	–	–
U2OS [14], 10000 nM	–	–	72.6	–	–
Vero E6 [17], 1 nM	–	–	93.5	–	–
Vero E6 [17], 10 nM	–	–	97.3	–	–
Vero E6 [17], 100 nM	–	–	94.5	–	–
Vero E6 [17], 1000 nM	–	–	96.6	–	–
Vero E6 [17], 10000 nM	–	–	70.6	–	–
[1], 0.1 µM	–	–	–	-0.03	–
[1], 0.3 µM	–	–	–	-0.04	–
[1], 1 µM	–	–	–	0.58	–
[1], 3 µM	–	–	–	0.88	–
[7], 0.1 µM	108	–	–	–	–
[7], 0.3 µM	96	–	–	–	–
[7], 1 µM	74	–	–	–	–
[7], 3 µM	32	–	–	–	–
[19], 0.1 µM	–	105	–	–	–
[19], 0.3 µM	–	99	–	–	–
[19], 1 µM	–	116	–	–	–
[19], 3 µM	–	123	–	–	–

Settings	drug sensitivity score	relative viability EC50 [µM]
Caco-2 [6]	1.3	–
Caco-2 [13]	–	> 10
Calu-3 [3]	3.7	–
HepG2 [4]	2.2	–
U2OS [2]	1.6	–
Vero E6 [5]	1.8	–

drug-induced phospholipidosis [%], A549-ACE2 [8]
Settings	0.3 µM	0.833333 µM	3.33333 µM	6.66667 µM	10 µM	30 µM
24 h	4.71	3.97	55.2	83.2	94.4	114
48 h	7.06	3.72	51.9	88.1	103	126
72 h	7.88	7.28	40	85.2	102	–

COc1ccc(/C=C2\CCCN=C2c2cccnc2)c(OC)c1 [GTS21]
Settings	SARS-CoV-2 infection rate, [7] [%]	cell count, [19] [%]	cell viability, Caco-2 [18] [%]	cell viability, Calu-3 [15] [%]	cell viability, HepG2 [16] [%]	cell viability, U2OS [14] [%]	cell viability, Vero E6 [17] [%]	morphology score, [1]
1 nM	–	–	104	97.4	113	94.8	107	–
10 nM	–	–	97.2	94.1	101	105	100	–
100 nM	–	–	93.9	101	101	96.2	103	–
0.3 µM	108	96	–	–	–	–	–	-0.18
1000 nM	–	–	106	95.3	104	102	102	–
3 µM	99	99	–	–	–	–	–	-0.04
10 µM	86	110	–	–	–	–	–	0.24
10000 nM	–	–	95.4	97	93.7	90.9	86.3	–
30 µM	28	118	–	–	–	–	–	0.78

Settings	drug sensitivity score	relative viability EC50 [µM]
Caco-2 [6]	0	–
Caco-2 [13]	–	> 10
Calu-3 [3]	0	–
Calu-3 [20]	–	> 10
HepG2 [4]	0	–
HepG2 [11]	–	> 10
U2OS [2]	0	–
U2OS [10]	–	> 10
Vero E6 [5]	0.1	–
Vero E6 [12]	–	> 10

drug-induced phospholipidosis [%], A549-ACE2 [8]
Settings	0.3 µM	0.833333 µM	3.33333 µM	6.66667 µM	10 µM	30 µM
24 h	2.83	0.08	1.02	-1.62	5.46	7.31
48 h	4.89	-1.26	2.13	1.63	7.64	10
72 h	3.83	-0.539	2.57	1.51	7.5	15.1

CCCc1cc(C)[nH]c(=O)c1CNC(=O)c1cc(-c2ccc(N3CCN(C(C)C)CC3)nc2)cc2c1cnn2C(C)C [UNC1999]
Settings	SARS-CoV-2 infection rate, [7] [%]	cell count, [19] [%]	cell viability, Caco-2 [18] [%]	cell viability, Calu-3 [15] [%]	cell viability, HepG2 [16] [%]	cell viability, U2OS [14] [%]	cell viability, Vero E6 [17] [%]	morphology score, [1]
1 nM	–	–	107	94.2	109	99.1	95.6	–
10 nM	–	–	103	103	100	102	94.6	–
100 nM	–	–	97.6	96.5	93.3	99.3	95.2	–
0.3 µM	100	103	–	–	–	–	–	0.06
1000 nM	–	–	96.9	91.4	99.6	107	84.7	–
3 µM	87	109	–	–	–	–	–	0.43
10 µM	29	119	–	–	–	–	–	0.8
10000 nM	–	–	83.9	89.4	88.7	102	107	–
30 µM	13	121	–	–	–	–	–	0.6

Settings	drug sensitivity score	relative viability EC50 [µM]
Caco-2 [6]	0.6	–
Caco-2 [13]	–	> 10
Calu-3 [3]	0.1	–
Calu-3 [20]	–	> 10
HepG2 [4]	0	–
HepG2 [11]	–	> 10
U2OS [2]	0	–
U2OS [10]	–	> 10
Vero E6 [5]	0	–
Vero E6 [12]	–	> 10

drug-induced phospholipidosis [%], A549-ACE2 [8]
Settings	0.3 µM	0.833333 µM	3.33333 µM	6.66667 µM	10 µM	30 µM
24 h	15.7	-2.03	5.96	5.07	18.5	38.5
48 h	6.9	-2.52	5.26	6.51	17.6	36.4
72 h	1.41	-4.2	4.48	4.14	13.9	37

Cc1ccc2cc(-c3c(C)ccc(C(=O)c4c(-c5ccccc5)n(C)n(-c5ccccc5)c4=O)c3N)ccc2n1 [AMG-PERK-44]
Settings	SARS-CoV-2 infection rate, [7] [%]	cell count, [19] [%]	cell viability, Caco-2 [18] [%]	cell viability, Calu-3 [15] [%]	cell viability, HepG2 [16] [%]	cell viability, U2OS [14] [%]	cell viability, Vero E6 [17] [%]	morphology score, [1]
1 nM	–	–	92.6	105	96.5	98.4	85.8	–
10 nM	–	–	90.6	102	98.4	96.7	88.9	–
100 nM	–	–	75.3	100	93	98.1	92.9	–
0.3 µM	107	96	–	–	–	–	–	-0.16
1000 nM	–	–	68.5	95.7	91.3	102	98.7	–
3 µM	86	101	–	–	–	–	–	0.09
10 µM	91	103	–	–	–	–	–	0.05
10000 nM	–	–	97.1	111	86.7	101	116	–
30 µM	51	103	–	–	–	–	–	0.57

Settings	drug sensitivity score	relative viability EC50 [µM]
Caco-2 [6]	0	–
Caco-2 [13]	–	> 10
Calu-3 [3]	0	–
Calu-3 [20]	–	> 10
HepG2 [4]	0.2	–
HepG2 [11]	–	> 10
U2OS [2]	0	–
U2OS [10]	–	> 10
Vero E6 [5]	0	–
Vero E6 [12]	–	> 10

drug-induced phospholipidosis [%], A549-ACE2 [8]
Settings	0.3 µM	0.833333 µM	3.33333 µM	6.66667 µM	10 µM	30 µM
24 h	0.1	-2.94	-0.56	4.07	7.05	23.2
48 h	0.46	-0.23	5.6	10.1	14.1	24.3
72 h	0.916	0.798	10	13.7	17.9	33.4
